Assays:
[1] = test system: HBsAg in HBV-infected PHH; assay: Cryopreserved primary human hepatocytes (PHH) HBV infection assay, extracellular HBsAg (CLIA); type: cell-based; details: Hepatitis B virus, Hepatocyte, 216 h, read-out: HBsAg IC50, Cryopreserved PHH infected with HBV, 9 days post-compound treatment, extracellular HBsAg
Description: This assay is used to confirm the anti-HBV effect of the compounds in HBV PHH infection assay. Cryopreserved PHH (BioreclamationIVT, Lot YJM) was thawed at 37° C. and gently transferred into pre-warmed InVitroGRO HT medium (BioreclamationIVT, Cat. S03317). The mixture was centrifuged at 70 relative centrifugal force (RCF) for 3 minutes at RT, and the supernatant was discarded. Pre-warmed InVitroGRO CP medium (BioreclamationIVT, Cat #S03316) was added to the cell pellet to gently re-suspend cells. The cells were seeded at the density of 5.8×10^4 cells per well to collagen I coated 96-well plate (Gibco, Cat. A1142803) with the InVitroGRO CP medium. All plates were incubated at 37° C. with 5% CO2 and 85% humidity.
At 20 hours after plating, the medium was changed to PHH culture medium (Dulbecco's Modified Eagle Medium (DMEM)/F12 (1:1) (Gibco, Cat. 11320-033), 10% fetal bovine semm (Gibco Cat. 10099141), 100 U/mL penicillin, 100 μg/mL streptomycin (Gibco, Cat. 151401-122), […] (Invitrogen Cat. PHG0311L), 20 ng/mL dexamethasone (Sigma, Cat. D4902) and 250 ng/mL human recombinant insulin (Gibco, Cat. 12585-014)). And the cells were incubated at 37° C. with 5% CO2 and 85% humidity for 4 hours. The medium was then changed to pre-warmed PHH culture medium containing 4% polyethylene glycol (PEG) MW8000 (Sigma, Cat. P1458-50 ML) and 1% DMSO (Sigma, Cat. D2650). 5.8×10^6 genomic equivalents of HBV were added into the medium.
At 24 hours post-infection, the cells were gently washed with PBS and refreshed with PHH culture medium supplemented with 1% DMSO, and 0.25 mg/mL Matrix gel (Corning, Cat. 356237) at 200 μL per well. All plates were immediately placed in at 37° C. CO2 incubator.
24 hours later, serial dilutions of compounds made with DMSO were further diluted with the same culture medium (PHH culture medium supplemented with 1% DMSO and 0.25 mg/mL Matrix gel as described above) before they were added to the cells to reach desired final compound concentrations and 1% DMSO concentration. The medium containing the compounds were refreshed every three days.
At 9 days post-compound treatment, extracellular HBsAg level were measured with Chemiluminescence Immuno Assay (CLIA) kit (Autobio, HBsAg Quantitative CLIA). Extracellular HBV DNA was extracted by MagNA Pure 96 system (Roche) and then determined by quantitative PCR with the following primers and probe: […]
HBsAg IC50 and HBV DNA IC50 values were derived from the dose-response curve using 4 parameter logistic curve fit method. The compounds of formula (I) have HBsAg IC50<20 μM, particularly <1 μM; and HBV DNA IC50<50 μM.

[2] = test system: HBeAg (surrogate marker for cccDNA) in HepDES19 cells; assay: Engineered HepDES19 primary screen assay (HBeAg ELISA); type: cell-based, HBV; details: Hepatitis B virus, HepDES19, 120 h, read-out: IC50 (HBeAg level, HepDES19 primary screen assay), HepDES19 cells, 5 days compound incubation, HBeAg ELISA
Summary of the method: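 HepDES19 cells were induced by Tet withdrawal for 8 days, then treated with half-log compound dilutions (1% DMSO final) for 5 days at 37 °C. HBeAg was measured by ELISA as the cccDNA surrogate, viability by CCK-8, and IC50 from a 4-parameter logistic fit.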

[3] = Human microsome stability assay; type: in vitro ADME; details: human liver microsomes, 1 μM test compound, 0.5 mg/mL microsomal protein, 37° C., pH 7.4, 0-30 minutes
Summary of the method: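 Compound (1 μM) incubated at 37 °C with human liver microsomes (0.5 mg/mL protein) in 100 mM potassium phosphate, pH 7.4, after 10 min preincubation; started with NADPH regenerating system. Sampled at 0–30 min, quenched with cold ACN; remaining parent quantified by LC-MS/MS, with no-NADPH controls.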

Structure (SMILES)	IC50 [1] [nM]	IC50 [2] [nM]	Clearance of Human microsome [3] [mL/min/kg]
CC(CC(=O)O)Oc1cc(C(F)(F)F)ccc1-c1cc(=O)c2cccc(Cl)c2o1 (stereo not drawn) [Example A039, 3-[2-(8-chloro-4-oxo-chromen-2-yl)-5-(trifluoromethyl)phenoxy]butanoic acid]	7080	142	6.37
CC(CC(=O)O)OC(=O)CC(C)Oc1cc(C(F)(F)F)ccc1-c1cc(=O)c2cccc(Cl)c2o1 (stereo not drawn) [Example A040, 3-[3-[2-(8-chloro-4-oxo-chromen-2-yl)-5-(trifluoromethyl)phenoxy]butanoyloxy]butanoic acid]	7940	525	6.15
COc1cc(-c2cc(=O)c3cccc(Cl)c3o2)c(OCCC(=O)O)cc1C(F)(F)F [Example A043, 3-[2-(8-chloro-4-oxo-chromen-2-yl)-4-methoxy-5-(trifluoromethyl)phenoxy]propanoic acid]	6690	2250	6.15
Cc1cc(-c2cc(=O)c3cccc(Cl)c3o2)c(OCCC(=O)O)cc1C(F)(F)F [Example A044, 3-[2-(8-chloro-4-oxo-chromen-2-yl)-4-methyl-5-(trifluoromethyl)phenoxy]propanoic acid]	1770	2520	6.15
Cc1ccc(-c2cc(=O)c3cccc(Cl)c3o2)c(OCC(=O)O)c1 [Example A049, 2-[2-(8-chloro-4-oxo-chromen-2-yl)-5-methyl-phenoxy]acetic acid]	1260	87.2	6.15
O=C(O)CCCOc1cc(C(F)(F)F)ccc1-c1cc(=O)c2cccc(Cl)c2o1 [Example A052, 4-[2-(8-chloro-4-oxo-chromen-2-yl)-5-(trifluoromethyl)phenoxy]butanoic acid]	6910	213	8.01
O=C(O)CCCOc1cc(OC(F)(F)F)ccc1-c1cc(=O)c2cccc(Cl)c2o1 [Example A053, 4-[2-(8-chloro-4-oxo-chromen-2-yl)-5-(trifluoromethoxy)phenoxy]butanoic acid]	3570	491	7.66
Cc1cc(-c2cc(=O)c3cccc(Cl)c3o2)c(OCCCC(=O)O)cc1Br [Example A054, 4-[5-bromo-2-(8-chloro-4-oxo-chromen-2-yl)-4-methyl-phenoxy]butanoic acid]	4210	1470	6.15
COc1cc(OCCCC(=O)O)c(-c2cc(=O)c3cccc(Cl)c3o2)cc1OC [Example A056, 4-[2-(8-chloro-4-oxo-chromen-2-yl)-4,5-dimethoxy-phenoxy]butanoic acid]	9210	3110	6.15
Cc1cc(-c2cc(=O)c3cccc(Cl)c3o2)c(OCCCC(=O)O)cc1Cl [Example A057, 4-[5-chloro-2-(8-chloro-4-oxo-chromen-2-yl)-4-methyl-phenoxy]butanoic acid]	9760	1330	6.15
O=C(O)[C@H]1CCN(C(=O)COc2cc(C(F)(F)F)ccc2-c2cc(=O)c3cccc(Cl)c3o2)C1 [Example A083, (3S)-1-[2-[2-(8-chloro-4-oxo-chromen-2-yl)-5-(trifluoromethyl)phenoxy]acetyl]pyrrolidine-3-carboxylic acid]	9740	5570	6.15
O=C(CCOc1cc(C(F)(F)F)ccc1-c1cc(=O)c2cccc(Cl)c2o1)NS(=O)(=O)C1CC1 [Example A084, 3-[2-(8-chloro-4-oxo-chromen-2-yl)-5-(trifluoromethyl)phenoxy]-N-cyclopropylsulfonyl-propanamide]	1020	1450	7.5
O=C(O)[C@H](COc1cc(C(F)(F)F)ccc1-c1cc(=O)c2cccc(Cl)c2o1)NS(=O)(=O)C1CC1 [Example A096, (2S)-3-[2-(8-chloro-4-oxo-chromen-2-yl)-5-(trifluoromethyl)phenoxy]-2-(cyclopropylsulfonylamino)propanoic acid]	1240	114	6.15
Cc1ccc(S(=O)(=O)N[C@@H](COc2cc(C(F)(F)F)ccc2-c2cc(=O)c3cccc(Cl)c3o2)C(=O)O)cc1 [Example A097, (2S)-3-[2-(8-chloro-4-oxo-chromen-2-yl)-5-(trifluoromethyl)phenoxy]-2-(p-tolylsulfonylamino)propanoic acid]	4030	983	8.78
CCNS(=O)(=O)N[C@@H](COc1cc(C(F)(F)F)ccc1-c1cc(=O)c2cccc(Cl)c2o1)C(=O)O [Example A099, (2S)-3-[2-(8-chloro-4-oxo-chromen-2-yl)-5-(trifluoromethyl)phenoxy]-2-(ethylsulfamoylamino)propanoic acid]	140	66.3	9.53
O=c1cc(-c2ccccc2O[C@H]2C[C@@H](C(=O)O)C2)oc2c(Cl)cccc12 [Example B002-A, cis-3-[2-(8-chloro-4-oxo-chromen-2-yl)phenoxy]cyclobutanecarboxylic acid]	2020	162	6.15
O=c1cc(-c2ccccc2O[C@H]2C[C@H](C(=O)O)C2)oc2c(Cl)cccc12 [Example B002-B, trans-3-[2-(8-chloro-4-oxo-chromen-2-yl)phenoxy]cyclobutanecarboxylic acid]	3350	112	6.15
O=C(O)C1CC(Oc2cc(C(F)(F)F)ccc2-c2cc(=O)c3cccc(Cl)c3o2)C1 (stereo not drawn) [Example B003, 3-[2-(8-chloro-4-oxo-chromen-2-yl)-5-(trifluoromethyl)phenoxy]cyclobutanecarboxylic acid]	4370	468	6.15
COc1cc(-c2cc(=O)c3cccc(Cl)c3o2)c(OC2CC(C(=O)O)C2)cc1Br (stereo not drawn) [Example B004, 3-[5-bromo-2-(8-chloro-4-oxo-chromen-2-yl)-4-methoxy-phenoxy]cyclobutanecarboxylic acid]	5520	556	6.15
O=C(O)C1CC(Oc2cc(OC(F)(F)F)ccc2-c2cc(=O)c3cccc(Cl)c3o2)C1 (stereo not drawn) [Example B005, 3-[2-(8-chloro-4-oxo-chromen-2-yl)-5-(trifluoromethoxy)phenoxy]cyclobutanecarboxylic acid]	6970	219	6.15
O=C(O)C1CC(Oc2cc(OC(F)(F)F)c(Br)cc2-c2cc(=O)c3cccc(Cl)c3o2)C1 (stereo not drawn) [Example B007, 3-[4-bromo-2-(8-chloro-4-oxo-chromen-2-yl)-5-(trifluoromethoxy)phenoxy]cyclobutanecarboxylic acid]	2240	2310	6.15
O=C(O)C1CCC(Oc2cc(Br)ccc2-c2cc(=O)c3cccc(Cl)c3o2)CC1 (stereo not drawn) [Example B010, 4-[5-bromo-2-(8-chloro-4-oxo-chromen-2-yl)phenoxy]cyclohexanecarboxylic acid]	7080	2760	6.15
